{"source": "the supplement of paper PMC10627819", "key": {"B. subtilis 168 [1]": {"system": "B. subtilis 168", "test": "fitness (endpoint OD595 vs no drug) (fraction); higher = more growth", "method_in_brief": "(§1)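 At 37 °C, bacteria in TSB, LB Lennox or CY were grown in 384-well plates from a starting OD595 of 0.01. OD595 was measured every 30 min for 14 h, with the first reading used as background. Fitness is the optical density at the switch to stationary phase as a fraction of the robust mean of no-drug control wells, capped at 1.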"}, "S. aureus DSM 20231 [2]": {"system": "S. aureus DSM 20231", "test": "fitness (endpoint OD595 vs no drug) (fraction); higher = more growth", "method_in_brief": "as §1"}, "S. aureus Newman [3]": {"system": "S. aureus Newman", "test": "fitness (endpoint OD595 vs no drug) (fraction); higher = more growth", "method_in_brief": "as §1"}, "B. subtilis 168 [4]": {"system": "B. subtilis 168", "test": "Bliss interaction score (quartile over a dose matrix) (fitness difference); higher = more antagonism (negative = synergy)", "method_in_brief": "(§2)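 Values were capped at 1 after dividing OD595 at stationary-phase entry by the plate's robust no-drug mean. This ratio is fitness, and single-drug fitness was inferred from the combination data. The Bliss score is observed minus product-expected fitness, given as quartiles over technical, biological and donor/recipient replicates.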"}, "S. aureus DSM 20231 [5]": {"system": "S. aureus DSM 20231", "test": "Bliss interaction score (quartile over a dose matrix) (fitness difference); higher = more antagonism (negative = synergy)", "method_in_brief": "as §2"}, "S. aureus Newman [6]": {"system": "S. aureus Newman", "test": "Bliss interaction score (quartile over a dose matrix) (fitness difference); higher = more antagonism (negative = synergy)", "method_in_brief": "as §2"}, "S. pneumoniae D39V": {"system": "S. pneumoniae D39V", "test": "Bliss interaction score (quartile over a dose matrix) (fitness difference); higher = more antagonism (negative = synergy)", "method_in_brief": "as §2"}, "[7]": {"conditions": "first compound 0.25 µg/mL, partner 0.625 µg/mL"}, "[8]": {"conditions": "first compound 0.25 µg/mL, partner 1.25 µg/mL"}, "[9]": {"conditions": "first compound 0.25 µg/mL, partner 2.5 µg/mL"}, "[10]": {"conditions": "first compound 0.5 µg/mL, partner 2.5 µg/mL"}, "[11]": {"conditions": "first compound 0.125 µg/mL, partner 0.625 µg/mL"}, "[12]": {"conditions": "first compound 0.125 µg/mL, partner 1.25 µg/mL"}, "[13]": {"conditions": "first compound 0.125 µg/mL, partner 2.5 µg/mL"}, "[14]": {"conditions": "first compound 0.125 µg/mL, partner 0.0156 µg/mL"}, "[15]": {"conditions": "first compound 0.125 µg/mL, partner 0.0312 µg/mL"}, "[16]": {"conditions": "first compound 0.125 µg/mL, partner 0.0625 µg/mL"}, "[17]": {"conditions": "first compound 0.25 µg/mL, partner 0.0156 µg/mL"}, "[18]": {"conditions": "first compound 0.25 µg/mL, partner 0.0312 µg/mL"}, "[19]": {"conditions": "first compound 0.25 µg/mL, partner 0.0625 µg/mL"}, "[20]": {"conditions": "first compound 0.5 µg/mL, partner 0.0312 µg/mL"}, "[21]": {"conditions": "first compound 0.5 µg/mL, partner 0.0625 µg/mL"}}, "data": [{"smiles": "CC[C@H]1OC(=O)[C@H](C)[C@@H](O[C@H]2C[C@@](C)(OC)[C@@H](O)[C@H](C)O2)[C@H](C)[C@@H](O[C@@H]2O[C@H](C)C[C@H](N(C)C)[C@H]2O)[C@](C)(O)C[C@@H](C)CN(C)[C@H](C)[C@@H](O)[C@]1(C)O", "note": "[Azithromycin] + Cc1ncc([N+](=O)[O-])n1CCO [Metronidazole]", "values": [{"measurement": "fitness", "setting": "B. subtilis 168 [1]; [7]", "result": 0.917}, {"measurement": "fitness", "setting": "B. subtilis 168 [1]; [8]", "result": 0.916}, {"measurement": "fitness", "setting": "B. subtilis 168 [1]; [9]", "result": 0.897}, {"measurement": "fitness", "setting": "B. subtilis 168 [1]; [10]", "result": 0.878}, {"measurement": "fitness", "setting": "S. aureus DSM 20231 [2]; [11]", "result": 0.932}, {"measurement": "fitness", "setting": "S. aureus DSM 20231 [2]; [12]", "result": 0.993}, {"measurement": "fitness", "setting": "S. aureus DSM 20231 [2]; [13]", "result": "≥ 1"}, {"measurement": "fitness", "setting": "S. aureus DSM 20231 [2]; [7]", "result": 0.928}, {"measurement": "fitness", "setting": "S. aureus DSM 20231 [2]; [8]", "result": 0.982}, {"measurement": "fitness", "setting": "S. aureus DSM 20231 [2]; [9]", "result": 0.949}, {"measurement": "fitness", "setting": "S. aureus Newman [3]; [11]", "result": 0.896}, {"measurement": "fitness", "setting": "S. aureus Newman [3]; first compound 0.125 µg/mL, partner 0.781 µg/mL, one replicate", "result": 0.882}, {"measurement": "fitness", "setting": "S. aureus Newman [3]; [12]", "result": 0.915}, {"measurement": "fitness", "setting": "S. aureus Newman [3]; first compound 0.125 µg/mL, partner 1.562 µg/mL, one replicate", "result": 0.875}, {"measurement": "fitness", "setting": "S. aureus Newman [3]; [13]", "result": 0.947}, {"measurement": "fitness", "setting": "S. aureus Newman [3]; first compound 0.125 µg/mL, partner 3.124 µg/mL, one replicate", "result": 0.859}, {"measurement": "fitness", "setting": "S. aureus Newman [3]; [7]", "result": 0.831}, {"measurement": "fitness", "setting": "S. aureus Newman [3]; first compound 0.25 µg/mL, partner 0.781 µg/mL, one replicate", "result": 0.942}, {"measurement": "fitness", "setting": "S. aureus Newman [3]; [8]", "result": 0.906}, {"measurement": "fitness", "setting": "S. aureus Newman [3]; first compound 0.25 µg/mL, partner 1.562 µg/mL, one replicate", "result": 0.924}, {"measurement": "fitness", "setting": "S. aureus Newman [3]; [9]", "result": 0.823}, {"measurement": "fitness", "setting": "S. aureus Newman [3]; first compound 0.25 µg/mL, partner 3.124 µg/mL, one replicate", "result": 0.928}, {"measurement": "fitness", "setting": "S. aureus Newman [3]; first compound 0.5 µg/mL, partner 0.625 µg/mL", "result": 0.73}, {"measurement": "fitness", "setting": "S. aureus Newman [3]; first compound 0.5 µg/mL, partner 0.781 µg/mL, one replicate", "result": 0.659}, {"measurement": "fitness", "setting": "S. aureus Newman [3]; first compound 0.5 µg/mL, partner 1.562 µg/mL, one replicate", "result": 0.642}, {"measurement": "fitness", "setting": "S. aureus Newman [3]; [10]", "result": 0.67}, {"measurement": "fitness", "setting": "S. aureus Newman [3]; first compound 0.5 µg/mL, partner 3.124 µg/mL, one replicate", "result": 0.635}, {"measurement": "Bliss interaction score", "setting": "B. subtilis 168 [4]", "result": 0.0931}, {"measurement": "Bliss interaction score", "setting": "S. aureus DSM 20231 [5]", "result": 0.0787}, {"measurement": "Bliss interaction score", "setting": "S. aureus Newman [6]", "result": -0.0641}, {"measurement": "Bliss interaction score", "setting": "S. pneumoniae D39V", "result": 0.102}]}, {"smiles": "CC[C@H]1OC(=O)[C@H](C)[C@@H](O[C@H]2C[C@@](C)(OC)[C@@H](O)[C@H](C)O2)[C@H](C)[C@@H](O[C@@H]2O[C@H](C)C[C@H](N(C)C)[C@H]2O)[C@](C)(O)C[C@@H](C)CN(C)[C@H](C)[C@@H](O)[C@]1(C)O", "note": "[Azithromycin] + Cc1onc(-c2ccccc2)c1C(=O)N[C@@H]1C(=O)N2[C@@H]1SC(C)(C)[C@@H]2C(=O)O [Oxacillin]", "values": [{"measurement": "fitness", "setting": "B. subtilis 168 [1]; first compound 0.25 µg/mL, partner 0.002 µg/mL", "result": 0.881}, {"measurement": "fitness", "setting": "B. subtilis 168 [1]; first compound 0.25 µg/mL, partner 0.004 µg/mL", "result": 0.851}, {"measurement": "fitness", "setting": "B. subtilis 168 [1]; first compound 0.25 µg/mL, partner 0.0078 µg/mL", "result": "≥ 1"}, {"measurement": "fitness", "setting": "B. subtilis 168 [1]; first compound 0.25 µg/mL, partner 0.008 µg/mL", "result": 0.824}, {"measurement": "fitness", "setting": "B. subtilis 168 [1]; first compound 0.25 µg/mL, partner 0.0155 µg/mL", "result": 0.964}, {"measurement": "fitness", "setting": "B. subtilis 168 [1]; first compound 0.25 µg/mL, partner 0.031 µg/mL", "result": 0.983}, {"measurement": "fitness", "setting": "B. subtilis 168 [1]; first compound 0.5 µg/mL, partner 0.002 µg/mL", "result": 0.87}, {"measurement": "fitness", "setting": "B. subtilis 168 [1]; first compound 0.5 µg/mL, partner 0.004 µg/mL", "result": 0.818}, {"measurement": "fitness", "setting": "B. subtilis 168 [1]; first compound 0.5 µg/mL, partner 0.0078 µg/mL", "result": 0.888}, {"measurement": "fitness", "setting": "B. subtilis 168 [1]; first compound 0.5 µg/mL, partner 0.008 µg/mL", "result": 0.842}, {"measurement": "fitness", "setting": "B. subtilis 168 [1]; first compound 0.5 µg/mL, partner 0.0155 µg/mL", "result": 0.887}, {"measurement": "fitness", "setting": "B. subtilis 168 [1]; first compound 0.5 µg/mL, partner 0.031 µg/mL", "result": 0.908}, {"measurement": "fitness", "setting": "B. subtilis 168 [1]; first compound 0.5 µg/mL, partner 0.075 µg/mL, one replicate", "result": 0.582}, {"measurement": "fitness", "setting": "B. subtilis 168 [1]; first compound 0.5 µg/mL, partner 0.15 µg/mL, one replicate", "result": 0.037}, {"measurement": "fitness", "setting": "B. subtilis 168 [1]; first compound 0.5 µg/mL, partner 0.3 µg/mL, one replicate", "result": 0.0266}, {"measurement": "fitness", "setting": "B. subtilis 168 [1]; first compound 1 µg/mL, partner 0.002 µg/mL", "result": 0.535}, {"measurement": "fitness", "setting": "B. subtilis 168 [1]; first compound 1 µg/mL, partner 0.004 µg/mL", "result": 0.503}, {"measurement": "fitness", "setting": "B. subtilis 168 [1]; first compound 1 µg/mL, partner 0.008 µg/mL", "result": 0.453}, {"measurement": "fitness", "setting": "B. subtilis 168 [1]; first compound 1 µg/mL, partner 0.075 µg/mL, one replicate", "result": 0.318}, {"measurement": "fitness", "setting": "B. subtilis 168 [1]; first compound 1 µg/mL, partner 0.15 µg/mL, one replicate", "result": 0.0238}, {"measurement": "fitness", "setting": "B. subtilis 168 [1]; first compound 1 µg/mL, partner 0.3 µg/mL, one replicate", "result": 0.0264}, {"measurement": "fitness", "setting": "B. subtilis 168 [1]; first compound 2 µg/mL, partner 0.075 µg/mL, one replicate", "result": 0.0267}, {"measurement": "fitness", "setting": "B. subtilis 168 [1]; first compound 2 µg/mL, partner 0.15 µg/mL, one replicate", "result": 0.016}, {"measurement": "fitness", "setting": "B. subtilis 168 [1]; first compound 2 µg/mL, partner 0.3 µg/mL, one replicate", "result": 0.0201}, {"measurement": "fitness", "setting": "S. aureus DSM 20231 [2]; [14]", "result": 0.722}, {"measurement": "fitness", "setting": "S. aureus DSM 20231 [2]; [15]", "result": 0.617}, {"measurement": "fitness", "setting": "S. aureus DSM 20231 [2]; [16]", "result": 0.482}, {"measurement": "fitness", "setting": "S. aureus DSM 20231 [2]; [17]", "result": 0.786}, {"measurement": "fitness", "setting": "S. aureus DSM 20231 [2]; [18]", "result": 0.62}, {"measurement": "fitness", "setting": "S. aureus DSM 20231 [2]; [19]", "result": 0.54}, {"measurement": "fitness", "setting": "S. aureus DSM 20231 [2]; [20]", "result": 0.183}, {"measurement": "fitness", "setting": "S. aureus DSM 20231 [2]; [21]", "result": 0.379}, {"measurement": "fitness", "setting": "S. aureus Newman [3]; [14]", "result": 0.723}, {"measurement": "fitness", "setting": "S. aureus Newman [3]; [15]", "result": 0.715}, {"measurement": "fitness", "setting": "S. aureus Newman [3]; [16]", "result": 0.624}, {"measurement": "fitness", "setting": "S. aureus Newman [3]; [17]", "result": 0.726}, {"measurement": "fitness", "setting": "S. aureus Newman [3]; [18]", "result": 0.725}, {"measurement": "fitness", "setting": "S. aureus Newman [3]; [19]", "result": 0.622}, {"measurement": "fitness", "setting": "S. aureus Newman [3]; [20]", "result": 0.365}, {"measurement": "fitness", "setting": "S. aureus Newman [3]; [21]", "result": 0.31}, {"measurement": "Bliss interaction score", "setting": "B. subtilis 168 [4]", "result": 0.0492}, {"measurement": "Bliss interaction score", "setting": "S. aureus DSM 20231 [5]", "result": -0.0461}, {"measurement": "Bliss interaction score", "setting": "S. aureus Newman [6]", "result": 0.0591}, {"measurement": "Bliss interaction score", "setting": "S. pneumoniae D39V", "result": 0.0949}]}]}
